# According to patent US8759049B2, “Method for the production of a fermentation product from a sugar hydrolysate” (Iogen Energy Corporation, priority 2010, dated 2014):
# What was measured:
# Format in all cases: cell-based
# [1] = system: bacteria that proliferated in the industrial fermentation (contaminated yeast cream); assay: Bacterial plate counts of contaminated yeast cream after acid and/or chlorine dioxide treatment (lab scale, Examples 1.1 and 1.2); details: for reduction of bacterial population: yeast cream first lowered to pH 2.0 with sulfuric acid, 5 minutes
# Method: A yeast cream (also referred to herein as a “yeast slurry”) separated from the fermentation broth and contaminated with bacteria that proliferated in the industrial fermentation was treated at 20° C. with acid alone, chlorine dioxide alone or a combination of the two. In the acid treated condition, the pH was lowered from 5.0 to 2.0 with sulfuric acid. In the chlorine dioxide treated condition, a concentrated stock of chlorine dioxide in water (10,000 ppm) was prepared by passing a mixture of chlorine and nitrogen gas through sodium chlorite columns. The resulting ClO2 gas was sparged into 4 L of cold de-ionized water until the desired concentration was reached. This chlorine dioxide solution was used to treat the yeast cream.
# In the combination treatment, the yeast cream was first lowered to pH 2.0 with sulfuric acid for 5 minutes and subsequently treated with the indicated bolus dose of chlorine dioxide for 5 minutes. In cases where the pH was lowered, the yeast cream was titrated back to 5.0 with sodium hydroxide after 10 minutes and prior to plating for bacterial enumeration. The duration of acid exposure was limited to 10 minutes to match the duration of exposure for the other treatments.
# Bacterial colonies were enumerated via standard plate count methods. In order to selectively plate bacterial colonies and inhibit yeast growth, tryptic soy agar plates (15 g/L pancreatic digest of casein, 5 g/L enzymatic digest of soybean meal, 5 g/L sodium chloride and 15 g/L agar) with 100 mg/L cycloheximide were used. Samples were serially diluted into sterile saline (0.9% NaCl w/v) prior to plating.
# Contaminated yeast cream obtained from the fermentation of Example 1.1 was titrated to pH 2.0 with sulfuric acid, treated with various concentrations of chlorine dioxide (0, 50, 100, 150 and 200 ppm) and plated to determine the bacterial reduction at pH 2.0 as outlined above, with the exception that the temperature of the treatment was 30° C. rather than 20° C. Bacterial populations were enumerated as previously described (Example 1.1). Bacterial populations were also enumerated on a control sample that was not subjected to chlorine dioxide or pH titration.
# [2] = system: Saccharomyces cerevisiae yeast strain; assay: Yeast cell counts (viability) of yeast cream after acid and/or chlorine dioxide treatment
# Method: A sample of the yeast cream from Example 1.1 was plated for yeast growth after the treatments outlined therein. […] Selective yeast growth was enabled by serially diluting the cream in sterile saline (0.9% NaCl w/v) and plating on YM plates (10 g/L glucose, 5 g/L peptone, 3 g/L yeast extract, 3 g/L malt extract, 20 g/L agar) containing 34 mg/L chloramphenicol to inhibit bacterial growth.
# [3] = system: contaminated yeast cream (Saccharomyces cerevisiae yeast strain with bacterial contaminants); assay: Yeast fermentation performance in lignocellulosic hydrolysate after treatment of contaminated yeast cream
# Method: Yeast fermentation performance was evaluated by inoculating the contaminated control yeast, acid-treated yeast and combination acid-chlorine dioxide treated yeast creams (treated as set forth in Example 1.1) into 400 mL of lignocellulosic hydrolysate. The lignocellulosic hydrolysate was produced as set forth in Example 1.1. Prior to inoculation, the media was sparged with pure CO2 for two minutes to ensure anaerobicity. Cells were allowed to ferment at 30° C., 150 rpm until sugar exhaustion. CO2 production was monitored for the course of the fermentation and samples were taken for dry cell weight and HPLC analysis.
# The samples were analyzed for cell mass using dry cell weight (Rice et al. (1980) Am. Soc. Brew. Chem. J. 38:142-45, which is incorporated herein by reference). For the fermentability analysis, samples were taken from the bioreactors using a 10 mL syringe. From each sample, cells in 2 mL culture samples were pelleted by centrifugation and the supernatant decanted and filtered through a 0.2 μm syringe filter. Each supernatant sample was diluted with 5 mM sulfuric acid. All dilutions were analyzed for glucose, xylose, xylitol, glycerol, and ethanol content on the Agilent 1100 Series Refractive Index Detector HPLC, while acetic and lactic acid were analyzed concurrently using an Agilent 1200 Series Variable Wavelength Detector HPLC. The column used for separation was the Varian Metacarb 87H Organic Acid column, maintained at 50° C. with a 5 mM sulfuric acid mobile phase at a flow rate of 0.6 mL/min. The unit was equipped with the 1100 Series Auto-sampler and Pumping System and controlled with the Chemstation software.
# [4] = system: bacteria contaminating yeast cream; assay: Bacterial plate counts of yeast cream in industrial scale operation before and after treatment
# Method: A volume of 100,000 L whole fermentation broth was separated into a beer fraction and a yeast cream after completion of the fermentation. The yeast cream was concentrated to approximately 170 g dry cell weight/L. Prior to recycle into the next fermentation batch, the yeast cream contaminated with bacteria was treated at 20° C. with acid alone (batch 1) or treated with acid in combination with chlorine dioxide (batch 2). […] Chlorine dioxide was generated in concentrated form at a nominal concentration of 2700 ppm using a system commercially available from Pureline, Palatine, Ill. In the combination treatment, the acidity of the yeast cream was first lowered to pH 2.0 (as per Example 1.1) and subsequently treated at a bolus dose of 200 ppm chlorine dioxide with a residence time of approximately 45 seconds. After treatment, the yeast cream was fed back into the fermentation.
Structure (SMILES),"reduction of contamination in yeast cream ([1]; 100 ppm chlorine dioxide, pH 2, 30° C.)","decrease of bacterial counts ([1]; 200 ppm chlorine dioxide, pH 2, 30° C.)","reduction of bacterial population ([1]; 200 ppm chlorine dioxide, 20° C.)","reduction of bacterial counts ([1]; 500 ppm chlorine dioxide, room temperature, as restated in Example 1.2 (see FIG. 2)) [fold]","reduction of bacterial population ([1]; 500 ppm chlorine dioxide, 20° C.)","effect of increasing chlorine dioxide dose on bacterial populations ([1]; pH 5.0, 0, 200 and 500 ppm, 20° C., no acid)","effect of increasing chlorine dioxide dose on fermentation yeast populations ([2]; 0, 200, 500 ppm, regardless of the pH of the treatment (pH 5 or pH 2))","viability of the fermentation yeast culture ([2]; combination of acid (pH 2) and chlorine dioxide 200 and 500 ppm, 20° C.)","xylose consumption rate in lignocellulosic hydrolysate ([3]; combination acid-chlorine dioxide treatment (pH 2, 200 and 500 ppm) versus untreated control, change greater than with acid alone)","ethanol yield ([3]; combination acid-chlorine dioxide treatment versus untreated control, change greater than with acid alone)","decrease of bacterial contamination counts ([4]; pH 2.0 with sulfuric acid then 200 ppm chlorine dioxide, about 45 seconds, 20° C., industrial scale (batch 2))","reduction of bacterial population by acid alone (pH control) ([1]; pH 2.0, no chlorine dioxide, 30° C.)","reduction of bacterial population by lowering the pH alone ([1]; pH 2.0 with sulfuric acid, 0 ppm chlorine dioxide, 20° C., 10 minutes)","viability of the fermentation yeast culture ([2]; acid treatment alone, pH 2, 20° C.)",ethanol yield ([3]; acid treatment alone (pH 2) versus untreated control),"xylose consumption rate in lignocellulosic hydrolysate ([3]; acid treatment alone (pH 2) versus untreated control, equivalent cell concentrations, 30° C.)","reduction of bacterial contamination counts ([4]; sulfuric acid alone to pH 2.0, 20° C., industrial scale (batch 1))"
[O][Cl+][O-] [chlorine dioxide],10^2 CFU/mL,greater than 10^5 CFU/mL,10^2 CFU/mL,100,10^3 CFU/mL,negligible effect,negligible effect,not affected,relative decrease,increase,10^4 CFU/mL,,,,,,
O=S(=O)(O)O [sulfuric acid],,,,,,,,,,,,did not reduce,does not significantly reduce,not affected,increase,relative decrease,10^2 CFU/mL
